Key:
A549 = test: Cytotoxicity against human A549 cells measured after 24 hrs by MTT assay; assay type: functional, cell-based
HeLa = test: Cytotoxicity against human HeLa cells measured after 24 hrs by MTT assay; assay type: functional, cell-based; set-up: unit not given here
SK-N-SH = test: Cytotoxicity against human SK-N-SH cells measured after 24 hrs by MTT assay; assay type: functional, cell-based
MCF7 [1] = test: Cytotoxicity against human MCF7 cells measured after 24 hrs by MTT assay; assay type: functional, cell-based
NRK-49F = test: Cytotoxicity against rat NRK-49F cells measured after 24 hrs by MTT assay; assay type: functional, cell-based
MCF7 [2] = test: Cell cycle arrest in human MCF7 cells assessed as accumulation at G1-phase at 4 uM measured after 24 hrs by propidium iodide staining based flow cytometry (reference value: 57%); assay type: functional
MCF7 [3] = test: Cell cycle arrest in human MCF7 cells assessed as accumulation at S-phase at 4 uM measured after 24 hrs by propidium iodide staining based flow cytometry (reference value: 14.9%); assay type: functional
MCF7 [4] = test: Cell cycle arrest in human MCF7 cells assessed as accumulation at G2/M-phase at 4 uM measured after 24 hrs by propidium iodide staining based flow cytometry (reference value: 13.8%); assay type: functional
MCF7 [5] = test: Cell cycle arrest in human MCF7 cells assessed as accumulation at subG0-phase at 4 uM measured after 24 hrs by propidium iodide staining based flow cytometry (reference value: 13.9%); assay type: functional
MCF7 [6] = test: Cell cycle arrest in human MCF7 cells assessed as accumulation at G2/M-phase at 4 uM measured after 24 hrs by propidium iodide staining based flow cytometry relative to control; assay type: functional
[7] = Inhibition of goat brain tubulin polymerization; set-up: species or system Capra hircus

| Compound | IC50 (A549) [µmol] | IC50 (HeLa) | IC50 (SK-N-SH) [µmol] | IC50 (MCF7 [1]) [µmol] | IC50 (NRK-49F) [µmol] | Activity (MCF7 [2]) | Activity (MCF7 [3]) [%] | Activity (MCF7 [4]) [%] | Activity (MCF7 [5]) | fold change (FC) (MCF7 [6]) | IC50 [7] [µM] |
| --- | --- | --- | --- | --- | --- | --- | --- | --- | --- | --- | --- |
| C/C(=N\NC(=O)/C(C#N)=C/c1ccccc1)c1c(O)c2ccc(O)cc2oc1=O | 14.82 | 15.75 | 13.52 | 19.22 | 55.45 | – | – | – | – | – | – |
| COc1ccc(/C=C(\C#N)C(=O)N/N=C(\C)c2c(O)c3ccc(O)cc3oc2=O)cc1 | 8.15 | 7.85 | 9.46 | 8.94 | 96.1 | – | – | – | – | – | – |
| C/C(=N\NC(=O)/C(C#N)=C/c1ccccc1[N+](=O)[O-])c1c(O)c2ccc(O)cc2oc1=O | 11.35 | 10.31 | 12.26 | 9.18 | 68.59 | – | – | – | – | – | – |
| COc1ccc(/C=C(\C#N)C(=O)N/N=C(\C)c2c(O)c3ccc(O)cc3oc2=O)cc1OC | 14.32 | 13.52 | 21.53 | 14.35 | 45.28 | – | – | – | – | – | – |
| C/C(=N\NC(=O)/C(C#N)=C/c1ccc(Br)cc1)c1c(O)c2ccc(O)cc2oc1=O | 11.43 | 10.56 | 12.05 | 9.85 | 49.64 | – | – | – | – | – | – |
| C/C(=N\NC(=O)/C(C#N)=C/c1ccc(N(C)C)cc1)c1c(O)c2ccc(O)cc2oc1=O | 4.31 | 5.14 | 6.09 | 3.42 | 53.41 | 22.7 - 22.8% | 22.6 | 45.3 | 8.5 - 10.6% | 4 | 6.19 |
| C/C(=N\NC(=O)/C(C#N)=C/c1ccc(O)cc1)c1c(O)c2ccc(O)cc2oc1=O | 6.23 | 6.02 | 8.12 | 7.32 | 61.31 | – | – | – | – | – | – |
| C/C(=N\NC(=O)/C(C#N)=C/c1ccccc1Cl)c1c(O)c2ccc(O)cc2oc1=O | 14.23 | 11.78 | 14.02 | 8.88 | 55.89 | – | – | – | – | – | – |
| COc1cccc2c1C(=O)c1c(O)c3c(c(O)c1C2=O)C[C@@](O)(C(=O)CO)C[C@@H]3O[C@H]1C[C@H](N)[C@H](O)[C@H](C)O1 [DOXORUBICIN] | 6.22 | – | 6.42 | 9.86 | 24.22 | – | – | – | – | – | – |
| C/C(=N\NC(=O)/C(C#N)=C/c1ccc([N+](=O)[O-])cc1)c1c(O)c2ccc(O)cc2oc1=O | 9.64 | 8.36 | 10.26 | 8.2 | 43.22 | – | – | – | – | – | – |
| C/C(=N\NC(=O)/C(C#N)=C/c1cccc([N+](=O)[O-])c1)c1c(O)c2ccc(O)cc2oc1=O | 21.9 | 24.64 | 28.26 | 16.35 | 46.53 | – | – | – | – | – | – |
| COc1cc(/C=C(\C#N)C(=O)N/N=C(\C)c2c(O)c3ccc(O)cc3oc2=O)cc(OC)c1OC | 15.32 | 18.46 | 14.61 | 11.34 | 55.34 | – | – | – | – | – | – |
| COC(=O)Nc1nc2cc(C(=O)c3cccs3)ccc2[nH]1 [NOCODAZOLE] | – | – | – | – | – | 21.6% | 22 | 39.3 | 16.4 - 16.8% | – | – |
| COc1cc(/C=C(\C#N)C(=O)N/N=C(\C)c2c(O)c3ccc(O)cc3oc2=O)ccc1O | 12.63 | 10.46 | 14.35 | 13.65 | 55.42 | – | – | – | – | – | – |
| C/C(=N\NC(=O)/C(C#N)=C/c1cccc(Br)c1)c1c(O)c2ccc(O)cc2oc1=O | 22.15 | 24.28 | 31.28 | 19.64 | 59.39 | – | – | – | – | – | – |

— ChEMBL document CHEMBL4390710, “Synthesis and biological evaluation of novel 4,7-dihydroxycoumarin derivatives as anticancer agents” (Bioorg Med Chem Lett, 2019)
